Patent US20090317376A1, “Compositions And Methods For Lipo Modeling” (Georgetown University MEDICAL SCHOOL, priority 2005, published 2009)

Test system: 3T3-L1 preadipocytes
Assay: Preadipocyte proliferation (mitogenic assay)
Format: cell-based, murine
From the text: To mimic stress-released NPY in vitro, conditioned media from, or coculture with, neuroblastoma SKNBE cells (a model of sympathetic neurons which release 0.1 pM NPY) is used to treat endothelial cells and 3T3-L1 preadipocytes. Both cell lines express all NPYRs but lack NPY (confirmed by RT-PCR and IHC, FIG. […] 6). […] When 3T3-L1 preadipocytes are cocultured with HMVEC, there is no significant mitogenic response between treated and untreated cells.
Co-culture: For mitogenic assay and expression studies, co-culture is performed in a Costar Transwell system. Cells are plated on the 6-well plates and the inserts with 0.4 μm Polyester membranes. After they reach 30% confluence, the inserts are placed into plates with other cells. Co-culture of neuroblastomas/SCG neurons with aECs are carried out in EC media and with preadipocytes—in preadipocyte growth media. […] After 48 h, the cells are counted with a coulter counter. […]
Mitogenic assays: 3T3-L1 pre-adipocytes are allowed to grow to 30% confluency before serum-starving the cells. […] Proliferation is determined by cell counting using a coulter counter (Beckman Coulter, Miami, Fla.). […] After 24 h, cells are harvested in a 96-well harvester (Tomtec) and counted in a Betaplate Liquid Scintillation Counter (Wallac).
1. […] After 24 h, cells were harvested in a 96-well harvester (Tomtec) and counted in a Betaplate Liquid Scintillation Counter (Wallac). […]

With neuropeptide Y [NPY] the preadipocyte proliferation (NPY treatment of 3T3-L1 preadipocytes) was “stimulated”.

For N=C(N)NCCC[C@H](NC(=O)CC1(CC(=O)N2CCN(C3c4ccccc4NC(=O)c4ccccc43)CC2)CCCC1)C(=O)NCCn1c(=O)n(-c2ccccc2)n(-c2ccccc2)c1=O (some centres unmarked) [BIIE0246], the “block of NPY- and neuroblastoma-conditioned media-stimulated preadipocyte proliferation” value (BIIE0246 1 μM) was “blocked”.
